These results are taken from patent publication US12018059B2, “Human amylin analog polypeptides and methods of use” (Intarcia Therapeutics, Inc., priority 2018, dated 2024).

Where two headings read alike, the source gives them in different places. Starred links: 1 amine or outer side, 2 acyl side, 3 side chain; linkers in the order of their positions; H or OH if unused. Positions of bridges follow the written chain, without caps; N, C: chain ends. Non-standard residues stand in square brackets, D forms with d. Residues, ends and D or L forms follow the SMILES beside them. Groups on a side chain read outwards from the residue. *: point of attachment. C20 diacid = O=C(O)CCCCCCCCCCCCCCCCCCC(=O)*; C18 diacid = O=C(O)CCCCCCCCCCCCCCCCC(=O)*; γGlu = O=C(O)[C@H](CCC(=O)[*:2])N[*:1]; Palmitoyl = CCCCCCCCCCCCCCCC(=O)*

The nature of data set [1]: Solubility of amylin analog polypeptides (visual inspection, room temperature). In kind it is physicochemical. The note with it: room temperature, read-out: Solubility. As for the experimental part: The analog polypeptides described herein were tested for solubility in saline 20% DMSO in water (i.e., bioassay buffer) or in aqueous (DI water) at room temperature. Samples were visually inspected for clarity of the sample, any appearance of turbidity or haziness.

Another data set is described as follows: in vivo. Further details: species or system Sprague-Dawley rats. The settings on record: rat, iv, 0.033 mg/kg. In short, it runs like this: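 Peptide plasma levels measured by UPLC-MS/MS (C18, product-ion monitoring) after protein precipitation or WCX SPE, calibrated in K2EDTA/protease-inhibitor rat plasma. Dosing in non-fasted male Sprague-Dawley rats (n=3): 0.033 mg/kg over 1 h by IV or SC infusion, or 0.3 mg/kg SC bolus; sampling up to 48 h.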

The nature of data set [2]: 27-day weight loss in combination with exenatide. The note with it: LE DIO rats.
Data set [3] in a line: Acute food intake inhibition after SC bolus injection (BioDAQ). The note with it: Long Evans rats on 45% high fat diet.
Data set [4] in a line: 13-day dose-response body weight loss, continuous SC infusion by osmotic mini-pump. The note with it: 13 days, LE DIO rats.
Data set [5] can be described thus: Stability of amylin analog polypeptides in solution at 37° C. (purity by LC/MS and HPLC). The data set is classed as physicochemical. The settings on record: 1 mg/ml, trifluoro acetate salt. As for the experimental part: Several amylin analog polypeptides described herein were tested, as the trifluoro acetate salt, for stability in DMSO (i.e., organosulfur solvent) or in aqueous (i.e., in DI water) at 1 mg/ml solution. These analog polypeptides were incubated at 37° C., and samples were withdrawn at various time intervals and analyzed by LC/MS and HPLC for determination of purity and mass of the parent peptide and extent of any degradation products. The purity results of these analyses are shown in Tables 6A & 6B and are considered indicative of stability.

For orientation: solubility means the dissolved amount per volume that the medium holds. What is called Vd is the apparent volume that relates the amount in the body to the concentration in plasma or blood. By clearance is commonly meant a measure of how efficiently the substance is removed, as volume per time. Low values mean a low capacity for elimination, high ones a high capacity for elimination. What is called half-life is the time needed for the level to fall by half in the phase considered. With `CC[C@H](C)[C@H](NC(=O)[C@@H]1CCCN1C(=O)CNC(=O)[C@H](Cc1ccccc1)NC(=O)[C@H](CC(N)=O)NC(=O)[C@H](CC(N)=O)NC(=O)[C@H](CO)NC(=O)[C@H](CO)NC(=O)[C@H](CCCCN)NC(=O)[C@H](Cc1c[nH]cn1)NC(=O)[C@H](CC(C)C)NC(=O)[C@H](CCC(=O)O)NC(=O)[C@H](CC(N)=O)NC(=O)[C@H](C)NC(=O)[C@H](CC(C)C)NC(=O)[C@H](CCCNC(=N)N)NC(=O)[C@H](CCC(N)=O)NC(=O)[C@@H](NC(=O)[C@H](C)NC(=O)[C@@H]1CSSC[C@H](NC(=O)[C@@H](N)CCCCNC(=O)CC[C@H](NC(=O)CC[C@H](NC(=O)CCCCCCCCCCCCCCCCC(=O)O)C(=O)O)C(=O)O)C(=O)N[C@@H](CC(N)=O)C(=O)N[C@@H]([C@@H](C)O)C(=O)N[C@@H](CO)C(=O)N[C@@H]([C@@H](C)O)C(=O)N1)[C@@H](C)O)C(=O)N[C@@H](CC(C)C)C(=O)N1CCC[C@H]1C(=O)N1CCC[C@H]1C(=O)N[C@H](C(=O)N[C@@H](CCCCN)C(=O)N[C@H](C(=O)NCC(=O)N[C@@H](CO)C(=O)N[C@@H](CCC(=O)O)C(=O)N[C@H](C(=O)N[C@@H](Cc1ccc(O)cc1)C(N)=O)[C@@H](C)O)C(C)C)[C@@H](C)O` [Compound A65] (H-K([γGlu-γGlu-C18 diacid])CNTSTCATQRLANELHKSSNNFGPILPPTKVGSETY-NH2; disulfide 2-7; N-terminus assumed), in data set [1] (deionised water, TFA salt, DI H2O), the solubility was determined as 138 mg/mL. This molecule yielded a Vd in “in vivo” (male, Sprague-Dawley) of 0.175 L/kg. The molecule further came in with a clearance in “in vivo” (male, Sprague-Dawley) of 0.101 mL/min/kg. In “in vivo” (male, Sprague-Dawley), this molecule showed a half-life of 22.6 h. Further, the “DIO Combination + Exenatide 27 d weight loss, ΔΔ % weight loss” value in data set [2] (dose 100 mcg/kg + Exenatide 10 mcg/kg) is listed as 8%; in data set [2] (dose 300 mcg/kg + Exenatide 10 mcg/kg) it was 9%; in data set [2] (dose 600 mcg/kg + Exenatide 10 mcg/kg), 12%. Further, the “Acute Food Intake % Inhibition vs vehicle” value in data set [3] (0-24 hr after acute SC dosing) amounted to 50%; in data set [3] (25-48 hr after acute SC dosing), 25%; in data set [3] (49-72 hr after acute SC dosing), 14%. The “DIO Dose Response 13 d weight loss, ED50” value in data set [4] worked out at 0.07 mg/kg. Moreover, the “DIO Dose Response 13 d weight loss, ΔΔ % weight loss” value in data set [4] (from baseline and vehicle control) was found to be 3%.

Turning to `CCCCCCCCCCCCCCCC(=O)N[C@@H](CCC(=O)N[C@@H](CCC(=O)N[C@@H](CCC(=O)NCCCC[C@@H](NC(=O)[C@H](CCC(=O)O)NC(=O)[C@H](CC(N)=O)NC(=O)[C@H](C)NC(=O)[C@H](CC(C)C)NC(=O)[C@H](CCCNC(=N)N)NC(=O)[C@H](CCC(N)=O)NC(=O)[C@@H](NC(=O)[C@H](C)NC(=O)[C@@H]1CSSC[C@H](NC(=O)[C@@H](N)CO)C(=O)N[C@@H](CC(N)=O)C(=O)N[C@@H]([C@@H](C)O)C(=O)N[C@@H](CO)C(=O)N[C@@H]([C@@H](C)O)C(=O)N1)[C@@H](C)O)C(=O)N[C@@H](Cc1c[nH]cn1)C(=O)N[C@@H](CCCCN)C(=O)N[C@@H](CO)C(=O)N[C@@H](CO)C(=O)N[C@@H](CC(N)=O)C(=O)N[C@@H](CC(N)=O)C(=O)N[C@@H](Cc1ccccc1)C(=O)NCC(=O)N1CCC[C@H]1C(=O)N[C@H](C(=O)N[C@@H](CC(C)C)C(=O)N1CCC[C@H]1C(=O)N1CCC[C@H]1C(=O)N[C@H](C(=O)N[C@@H](CCCCN)C(=O)N[C@H](C(=O)NCC(=O)N[C@@H](CO)C(=O)N[C@@H](CC(N)=O)C(=O)N[C@H](C(=O)N[C@@H](Cc1ccc(O)cc1)C(N)=O)[C@@H](C)O)C(C)C)[C@@H](C)O)[C@@H](C)CC)C(=O)O)C(=O)O)C(=O)O` [Compound A67] (H-SCNTSTCATQRLANE[dK]([γGlu-γGlu-γGlu-Palmitoyl])HKSSNNFGPILPPTKVGSNTY-NH2; disulfide 2-7), the solubility in data set [1] (TFA salt, DI H2O) worked out at 70.6 mg/mL. In addition, in “in vivo”, the Vd turned out to be 0.198 L/kg, the clearance worked out at 0.357 mL/min/kg and the half-life is 7.14 h.

On to `CC[C@H](C)[C@H](NC(=O)[C@@H]1CCCN1C(=O)CNC(=O)[C@H](Cc1ccccc1)NC(=O)[C@H](CC(N)=O)NC(=O)[C@H](CC(N)=O)NC(=O)[C@H](CO)NC(=O)[C@H](CO)NC(=O)[C@H](CCCCN)NC(=O)[C@H](Cc1c[nH]cn1)NC(=O)[C@H](CC(C)C)NC(=O)[C@H](CCC(=O)O)NC(=O)[C@H](CC(N)=O)NC(=O)[C@H](C)NC(=O)[C@H](CC(C)C)NC(=O)[C@H](CCCNC(=N)N)NC(=O)[C@H](CCC(N)=O)NC(=O)[C@@H](NC(=O)[C@H](C)NC(=O)[C@@H]1CSSC[C@H](NC(=O)[C@@H](N)CCCCNC(=O)CC[C@H](NC(=O)CC[C@H](NC(=O)CCCCCCCCCCCCCCCCCCC(=O)O)C(=O)O)C(=O)O)C(=O)N[C@@H](CC(N)=O)C(=O)N[C@@H]([C@@H](C)O)C(=O)N[C@@H](CO)C(=O)N[C@@H]([C@@H](C)O)C(=O)N1)[C@@H](C)O)C(=O)N[C@@H](CC(C)C)C(=O)N1CCC[C@H]1C(=O)N1CCC[C@H]1C(=O)N[C@H](C(=O)N[C@@H](CCCCN)C(=O)N[C@H](C(=O)NCC(=O)N[C@@H](CO)C(=O)N[C@@H](CCC(=O)O)C(=O)N[C@H](C(=O)N[C@@H](Cc1ccc(O)cc1)C(N)=O)[C@@H](C)O)C(C)C)[C@@H](C)O` [Compound A64] (H-K([γGlu-γGlu-C20 diacid])CNTSTCATQRLANELHKSSNNFGPILPPTKVGSETY-NH2; disulfide 2-7; N-terminus assumed), for which the solubility was determined as 123 mg/mL in data set [1] (Acetate salt, 20% DMSO in DI H2O); 104 mg/mL in data set [1] (Acetate salt, DI H2O); 88.3 mg/mL in data set [1] (Acetate salt, Saline); 56 mg/mL in data set [1] (TFA salt, 20% DMSO in DI H2O); 103 mg/mL in data set [1] (TFA salt, DI H2O). Also, in the data set “in vivo”, the Vd is 0.182 L/kg. Besides, the clearance in the data set “in vivo” is 0.0641 mL/min/kg. This molecule also showed a half-life in the data set “in vivo” of 37.2 h. For the same molecule, the purity of parent peptide (indicative of stability) is 98.8% in data set [5] (20% DMSO in DI Water, Day 0 room temp); 98.1% in data set [5] (20% DMSO in DI Water, Day 5 37° C.); 98.6% in data set [5] (20% DMSO in DI Water, Day 8 37° C.); 97.9% in data set [5] (20% DMSO in DI Water, Day 12 37° C.); 97.2% in data set [5] (20% DMSO in DI Water, Day 19 37° C.); 97.3% in data set [5] (20% DMSO in DI Water, Day 25 37° C.). For the same molecule, the purity of parent peptide (indicative of stability) was found to be 97.2% in data set [5] (20% DMSO in DI Water, Day 32 37° C.); 100% in data set [5] (DI Water, Day 0 room temp); 99.1% in data set [5] (DI Water, Day 5 37° C.); 98.1% in data set [5] (DI Water, Day 8 37° C.); 98.1% in data set [5] (DI Water, Day 12 37° C.); 97.4% in data set [5] (DI Water, Day 19 37° C.). For the same molecule, the purity of parent peptide (indicative of stability) amounted to 97.3% in data set [5] (DI Water, Day 25 37° C.) and 88.5% in data set [5] (DI Water, Day 32 37° C.).
